Results on 24 molecules are retold here after ChEMBL document CHEMBL4819050, “Discovery of a novel series of guanidinebenzoates as gut-restricted enteropeptidase and trypsin dual inhibitors for the treatment of metabolic syndrome” (Bioorg Med Chem Lett, 2021).

The structures appear in SMILES notation.

Common to all, as to design: scale not given: the % may be the effect or the level left
Assay [1] has as its target Enteropeptidase (Homo sapiens) (UniProt P98073). Description: Inhibition of full length recombinant human EP expressed in CHO cells assessed as protease activity using […] as substrate at 0.1 uM by fluorescence assay relative to control.
Assay [2] has the same target. Description: Inhibition of full length recombinant human EP expressed in CHO cells assessed as protease activity using […] as substrate at 10 uM by fluorescence assay relative to control.
Assay [3] has the same target. Description: Inhibition of full length recombinant human EP expressed in CHO cells assessed as protease activity using […] as substrate at 1 uM by fluorescence assay relative to control.
For assay [4], the species on record is Bos taurus. Description: Inhibition of bovine trypsin assessed as protease activity using D-CHA-AR-AMC as substrate at 0.1 uM by fluorescence assay relative to control.
For assay [5], the species on record is Bos taurus. Put plainly: Inhibition of bovine trypsin assessed as protease activity using D-CHA-AR-AMC as substrate at 10 uM by fluorescence assay relative to control.
Assay [6] is filed under the species Bos taurus. Put plainly: Inhibition of bovine trypsin assessed as protease activity using D-CHA-AR-AMC as substrate at 1 uM by fluorescence assay relative to control.

Chain of Enteropeptidase (Homo sapiens) (P98073 2-784 limits assumed): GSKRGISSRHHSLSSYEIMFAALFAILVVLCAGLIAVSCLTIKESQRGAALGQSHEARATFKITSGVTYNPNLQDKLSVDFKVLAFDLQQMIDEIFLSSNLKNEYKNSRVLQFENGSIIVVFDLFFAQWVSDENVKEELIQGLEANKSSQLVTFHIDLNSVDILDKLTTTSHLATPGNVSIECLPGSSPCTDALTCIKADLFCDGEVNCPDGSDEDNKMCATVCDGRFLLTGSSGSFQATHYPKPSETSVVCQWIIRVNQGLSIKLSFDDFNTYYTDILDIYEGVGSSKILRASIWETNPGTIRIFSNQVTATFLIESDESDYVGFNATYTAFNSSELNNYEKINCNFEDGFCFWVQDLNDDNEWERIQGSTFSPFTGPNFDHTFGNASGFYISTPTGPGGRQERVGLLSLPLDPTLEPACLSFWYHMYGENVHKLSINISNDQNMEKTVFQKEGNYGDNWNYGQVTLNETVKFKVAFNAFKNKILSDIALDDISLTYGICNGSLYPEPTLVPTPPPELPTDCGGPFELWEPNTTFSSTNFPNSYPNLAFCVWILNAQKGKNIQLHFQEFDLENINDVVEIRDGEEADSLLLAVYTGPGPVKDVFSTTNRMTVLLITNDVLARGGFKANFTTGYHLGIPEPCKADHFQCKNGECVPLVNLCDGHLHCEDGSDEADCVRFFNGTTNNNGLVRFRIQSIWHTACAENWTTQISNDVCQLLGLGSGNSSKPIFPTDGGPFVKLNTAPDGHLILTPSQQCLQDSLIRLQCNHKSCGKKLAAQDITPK
Chain of Enteropeptidase (Homo sapiens) (P98073 785-1019 limits assumed): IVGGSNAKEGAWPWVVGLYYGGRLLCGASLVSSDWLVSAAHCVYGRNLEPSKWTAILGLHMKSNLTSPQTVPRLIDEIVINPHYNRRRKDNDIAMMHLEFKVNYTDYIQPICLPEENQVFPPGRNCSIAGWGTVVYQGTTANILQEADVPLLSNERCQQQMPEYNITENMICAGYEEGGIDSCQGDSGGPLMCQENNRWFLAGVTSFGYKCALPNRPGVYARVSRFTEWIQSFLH

With `N=C(N)Nc1ccc(C(=O)Oc2ccc(CC(=O)O)n3ncnc23)c2ccoc12`, the Activity in assay [1] came out at 36.3%; in assay [2] it was 100%; in assay [3], 98.8%; in assay [4] it was 14.6%; in assay [5], 99.9%; in assay [6], 80%.

`N=C(N)Nc1ccc(C(=O)Oc2ccc(CC(=O)O)n3ncnc23)c(C(F)(F)F)c1`: the Activity amounted to 4.14% in assay [1]; 98.9% in assay [2]; 38.5% in assay [3]; 2.31% in assay [4]; 88.7% in assay [5]; 16.6% in assay [6].

With `N=C(N)Nc1ccc(C(=O)Oc2ccc(CCC(=O)O)n3ncnc23)cc1`, the Activity was found to be 35% in assay [1]; 100% in assay [2]; 101% in assay [3]; 99.8% in assay [4]; 100% in assay [5]; 100% in assay [6].

`CC(=N)Nc1ccc(C(=O)Oc2ccc(CC(=O)O)n3ncnc23)cc1`: the Activity in assay [1] turned out to be 47.8%; in assay [2] it was 100%; in assay [3], 99.6%; in assay [4] it was 11.5%; in assay [5], 99.7%; in assay [6] it was 68%.

Take `N=C(N)Nc1ccc(C(=O)Oc2ccc(C3OC(=O)NC3=O)n3ncnc23)cc1` (centres undefined): the Activity in assay [1] stood at 73%; in assay [2] it was 100%; in assay [3] it was 101%; in assay [4] it was 99.8%; in assay [5], 100%; in assay [6], 100%.

For `N=C(N)Nc1ccc(C(=O)Oc2ccc(CC(=O)O)n3ncnc23)cc1Cl`, the Activity in assay [1] was 18.2%; in assay [2], 101%; in assay [3], 84.4%; in assay [4], 6.34%; in assay [5], 99.8%; in assay [6] it was 56.6%.

On to `N=C(N)Nc1ncc(C(=O)Oc2ccc(CC(=O)O)n3ncnc23)cn1`, for which the Activity in assay [1] is 92.1%; in assay [2], 100%; in assay [3] it was 99.5%; in assay [4] it was 96.5%; in assay [5], 100%; in assay [6], 100%.

For `N=C(N)Nc1ccc(C(=O)Oc2ccc(CC(=O)O)n3ncnc23)s1`, the Activity in assay [1] came to 82%; in assay [2], 100%; in assay [3], 100%; in assay [4], 93.8%; in assay [5] it was 99.8%; in assay [6], 99.9%.

For `N=C(NN)c1ccc(C(=O)Oc2ccc(CC(=O)O)n3ncnc23)cc1`, the Activity in assay [1] was found to be 0.5%; in assay [2] it was 51.8%; in assay [3], 12.2%; in assay [4], 1.62%; in assay [5], 25.5%; in assay [6], 2.74%.

On to `N=C(N)NCc1ccc(C(=O)Oc2ccc(CC(=O)O)n3ncnc23)cc1`, for which the Activity worked out at 10.9% in assay [1]; 83.6% in assay [2]; 43.7% in assay [3]; 3.87% in assay [4]; 72.5% in assay [5]; 19.9% in assay [6].

For the molecule `N=C(N)Nc1ccc(C(=O)Oc2ccc(CC(=O)O)n3ncnc23)c(Cl)c1`, the Activity in assay [1] was determined as 81.2%; in assay [2] it was 100%; in assay [3], 100%; in assay [4], 43.5%; in assay [5], 99.9%; in assay [6], 97.6%.

For `N=C(N)Nc1ccc(C(=O)Oc2cc(CC(=O)O)cn3ncnc23)cc1`, the Activity was 13.1% in assay [1]; 101% in assay [2]; 58.8% in assay [3]; 81.7% in assay [4]; 100% in assay [5]; 100% in assay [6].

`O=C(O)Cc1ccc(OC(=O)c2ccc(NC3=NCCCN3)cc2)c2ncnn12`: the Activity in assay [1] was 1.03%; in assay [2], -10.4%; in assay [3] it was -2%; in assay [4], 2.91%; in assay [5] it was -7.38%; in assay [6], -3.49%.

Regarding `N#CNC(=N)c1ccc(C(=O)Oc2ccc(CC(=O)O)n3ncnc23)cc1`, the Activity in assay [1] was -1.6%; in assay [2], 13.6%; in assay [3], 1.9%; in assay [4], -2.06%; in assay [5], 35.8%; in assay [6], 2.46%.

For `CNC(=N)c1ccc(C(=O)Oc2ccc(CC(=O)O)n3ncnc23)cc1`, the Activity in assay [1] was -0.79%; in assay [2], 52.3%; in assay [3], 11.3%; in assay [4] it was 5.66%; in assay [5] it was 66.5%; in assay [6] it was 8.66%.

Turning to `N=C(N)Nc1cccc(C(=O)Oc2ccc(CC(=O)O)n3ncnc23)c1`, the Activity in assay [1] was -11.2%; in assay [2] it was 6.8%; in assay [3], -6.7%; in assay [4] it was -0.24%; in assay [5], 18.6%; in assay [6] it was 1.21%.

For `N=C(N)Nc1ccc(C(=O)Oc2ccc(CC(=O)O)n3ncnc23)c(F)c1`, the Activity in assay [1] was found to be 99.4%; in assay [2], 100%; in assay [3], 100%; in assay [4], 97.2%; in assay [5] it was 100%; in assay [6], 99.7%.

As to `Cc1cc(C(=O)Oc2ccc(CC(=O)O)n3ncnc23)ccc1NC(=N)N`, the Activity in assay [1] was determined as 1.3%; in assay [2], 36.7%; in assay [3], 6.3%; in assay [4], 0%; in assay [5], 35.5%; in assay [6], 8.4%.

As for `COc1cc(C(=O)Oc2ccc(CC(=O)O)n3ncnc23)ccc1NC(=N)N`, the Activity was determined as 20.8% in assay [1]; 101% in assay [2]; 87.1% in assay [3]; 13.8% in assay [4]; 99.9% in assay [5]; 72.4% in assay [6].

Regarding `C/N=C(\NC)Nc1ccc(C(=O)Oc2ccc(CC(=O)O)n3ncnc23)cc1`, the Activity in assay [1] is 1.35%; in assay [2] it was 12.6%; in assay [3], 1.32%; in assay [4], -1.72%; in assay [5] it was 9.42%; in assay [6] it was 0.59%.

As to `O=C(O)Cc1ccc(OC(=O)c2ccc(NC3=NCCN3)cc2)c2ncnn12`, the Activity in assay [1] is -0.28%; in assay [2], -2.75%; in assay [3] it was -2.47%; in assay [4], 0.21%; in assay [5] it was -7.45%; in assay [6] it was -2.97%.

With `N#Cc1cc(C(=O)Oc2ccc(CC(=O)O)n3ncnc23)ccc1NC(=N)N`, the Activity is -3.01% in assay [1]; 32.1% in assay [2]; -6.26% in assay [3]; 0.95% in assay [4]; 29.9% in assay [5]; 12.3% in assay [6].

As to `O=C(O)Cc1ccc(OC(=O)c2ccc(C3=NCCN3)cc2)c2ncnn12`, the Activity in assay [1] is 4.69%; in assay [2] it was 58.6%; in assay [3] it was 16.9%; in assay [4], -0.36%; in assay [5] it was 21.6%; in assay [6], 2.66%.

In the case of `C/C(=N\O)Nc1ccc(C(=O)Oc2ccc(CC(=O)O)n3ncnc23)cc1`, the Activity is -10.7% in assay [1]; -10.8% in assay [2]; -10.1% in assay [3]; -8.04% in assay [4]; 10.1% in assay [5]; -0.45% in assay [6].
